Measured values: patent US10064911B2, “Peptides for treating cancer” (The Board of Trustees of the University of Illinois, priority 2015, dated 2018)
Entries after “also recorded” stand apart in the source; their conditions may differ.

How the values were obtained:
[1] = tested on: MDA-MB-231 human breast cancer cells; assay: Triple negative breast cancer xenograft: tumor growth and neovascularization; assay type: in vivo, Nude mice; details: for number of vessels outside of the tumor: H&E staining
From the text: FIG. 8A plots tumor growth curve in xenograft model; mean is shown; n=8 mice per group. FIG. 8B plots the number of vessels per area counted outside of the tumor; n=25 fields/mouse; N=5 mice; *, p<0.05; **, p<0.01.
The effect of EBIN on growth rate of triple negative (estrogen receptor [ER], progesterone receptor [PR] and human epidermal growth factor receptor-2 [HER-2] are not expressed in this cell line) human breast cancer cells using a xenograft model was investigated. Nude mice (n=8 mice per group) were injected with 3×10^6 MDA-MB-231 human breast cancer cells into the upper left mammary fat pad. All mice developed the tumor by day 13. At that time point, mice were randomized and divided by 5 groups and each group received the treatment. Study was terminated at day 24 when the tumor reached 2000 mm^3 in size. The treatment with control peptide and EBIN was performed daily for 7 days. EBIN and control peptide were delivered via tail vein injection. Control peptide was injected at 5 μM/kg body weight. EBIN was injected at 1 μM/kg and 5 μM/kg body weight.
Treatment with taxol was performed via intraperitoneal injection at 10 μM/kg body weight for 4 days. Tumor size was measured 3 times a week.
To correlate the effect of EBIN treatment with tumor neovascularization, tumor tissue was collected, fixed and stained with hematoxylin and eosin (H&E). Number of […] outside of the tumor mass was scored and normalized per area.

HMVECs = assay: Thrombin-induced Ca2+ release from ER stores in HMVECs (Fura 2-AM); assay type: cell-based; details: pre-treatment with 5 μg/ml for 20 min prior to thrombin stimulation
Description: (FIG. 4A) HMVECs pre-treated with AP-attached IP3R3 peptide or control (AP) peptide were loaded with Fura 2-AM and 340/380 ratio was calculated after stimulation of cells with thrombin (50 nM) in the absence and in the presence of extracellular Ca^2+. Arrow, time of thrombin addition. […] The increase is normalized to control non-treated cells from the same experiment (n=4).
[…] contains EB binding consensus motif, Ser/Thr-x-Ile-Pro (SxIP) (SEQ ID NO: 5). […] The role of the interaction between EB3 and IP3R3 was recently described by Geyer et al., Cell Rep 12(1):79-89; 2015. […] The effects of IP3R3 peptide and taxol were compared in regulating Ca^2+ release.

[2] = tested on: blood vessels ingrowth into matrigel plugs; assay: In vivo ectopic matrigel plug angiogenesis; set-up: species or system mice; details: for number of vessels / vessel formation in matrigel plugs: matrigel with heparin and VEGF, plugs removed at 96 hours, HE staining
Description: (§1) Group 1 was treated with control peptide and group 3 was treated with Myr-EBIN at 0, 36 and 60 hrs; group 2 received only 36 and 60 hour treatment. […] Scale bar, 200 μm.
EBIN effect on blood vessels in growth in an in vivo model of ectopic matrige angiogenesis was also investigated. Blood vessel in growth matrigel was pre-mixed with heparin and VEGF but not with endothelial cells, and i.p. injected into low abdomen of mice. There were two 400 μL plugs per mouse. […] These vessels were functional and perfused with blood that is apparent from the presence of red blood cells inside the vessels. In addition, mice were treated with EBIN at the time of matrigel injection (FIG. 7C,2; Group 2) or 36 hrs after matrigel (FIG. 7C,3; Group 3). Matrigel plugs were removed at 96 hours, fixed and stained with HE to assess the vessel formation.

[3] = tested on: human VEGF-induced vascular leakage; assay: VEGF-induced subcutaneous vascular leakage of albumin-bound Evans Blue; assay type: in vivo, Balb/cJ mice; details: pretreated 1 μM/kg; human VEGF 50 ng/kg intradermal; measured at 620 nm
Description: A study investigating whether injection of the EBIN prevented vascular endothelial growth factor (VEGF)-induced microvascular leakage was carried out. Balb/cJ mice were pretreated with the EBIN peptide (1 μM/kg) or a control peptide (2T→A mutation) and then human VEGF (50 ng/kg body weights) was intradermally injected to induce vascular leakage of albumin-bound Evans Blue (see FIG. 6A). In addition, the formamide-extracted Evans Blue was quantified spectrophotometically at 620 nm and corrected for hemoglobin (740 nm) and skin weight (see FIG. 6B).

[4] = Acute toxicity testing in vivo (eye); set-up: species or system C57BL/6 mice
Description: Representative images of Fundus Fluorescein Angiography F and corresponding Optical Coherence Tomography (FIG. 12B) at day 8 of intravitreal treatment with EBIN (1 μg/eye).
A short term study is designed to assess safety of administration in vivo. C57BL/6 mice (n=10, 5 mice per group/treatment route) are randomized and divided into two groups. The first group is treated with EBIN in the right eye via eye drops delivered twice daily, 5 μg per eye (10 μl) and, the second group is treated with intravitreal injection of EBIN in the right eye at the maximum dose, 1 μg per eye (2 μl) on day one. The intravitreal injection is performed under ketamine/xylazine (100 mg/5 mg/kg) anesthesia. Both groups are monitored daily for general health including body weight as well as any eye abnormalities including opacity, exophthalmia enophthalmia, conjunctivitis, abnormal secretions or crusting, and corneal ulcers for a period of 8 days. Animals are subsequently subjected to fluorescein angiography and OCT imaging.

[5] = tested on: laser-induced choroidal neovascularization (CNV); details: 1 μg/eye single intravitreal injection; day 15; versus control peptide
Description: Quantification of the area of fluorescein leakage (FIG. 11D) and lesion (FIG. 11E) using images shown in (FIG. 11A) and (FIG. 11C); n=6-9 mice per group; **, p<0.01. […] Comparison between groups were performed using ANOVA.
To assess the barrier-protective and anti-angiogenic activities of EBIN, EBIN is tested in murine models of CNV. In addition to treatment with EBIN, LEAF™ antibody (a monoclonal rat antibody against mouse VEGF-A) and control peptide (Myr-FAEIPTI), were used as positive and negative experimental controls, respectfully.
Mice were anesthetized with a mixture of ketamine/xylazine (100 mg/5 mg/kg IP) and their pupils were dilated with a topical application of Cyclomydril (Alcon Laboratories, Fort Worth, Tex.). The fundus was viewed with an imaging camera, and laser photocoagulation was induced using the image-guided laser system (Micron IV, Phoenix Research Laboratories, Pleasanton, Calif.). Four laser burns at equal distance from the optic nerve were induced one by one in right eye by a green Argon laser pulse with a wavelength of 532 nm, a fixed diameter of 50 μm, duration of 70 ms, and power levels from 210-250 mW. Appearance of bubble or a small subretinal hemorrhage (diameter <1 mm) at the laser spot serves to indicate rupture of the Bruch's membrane and as confirmation of laser-induced CNV. This procedure was performed only on the right eye of each mouse. […]

endothelial cell = assay type: cell-based; details: data not shown
[6] = tested on: human umbilical vein endothelial cells; assay: In vitro tubulogenesis in 2D matrigel model; assay type: cell-based; details: 1 μM; assessed 16 hours after plating on matrigel
Description: as §1
The effect of EBIN on in vitro tubulogenesis and in vivo angiogenesis was investigated using matrigel models. A single cell suspension of human umbilical vein endothelial cells was plated above matrigel-coated wells in the presence of 1 μM EBIN or control peptide; tube formation was assessed 16 hours later.

Row | Compound | number of vessels outside of the tumor ([1]; 10 μM/kg intraperitoneal for 4 days) | tumor growth ([1]; intraperitoneal injection at 10 μM/kg body weight for 4 days) | release of Ca2+ from ER in response to thrombin (HMVECs) | number of vessels / vessel formation in matrigel plugs [2] | subcutaneous vascular leak of albumin-bound Evans Blue [3] | number of vessels outside of the tumor ([1]; 5 μM/kg, tail vein) | tumor growth rate ([1]; tail vein injection, 1 μM/kg body weight daily for 7 days) | tumor size ([1]; tail vein injection, 5 μM/kg body weight daily for 7 days) | toxicity ([4]; eye drops 5 μg per eye twice daily or intravitreal 1 μg per eye, 8 days, with or without CNV induction) | crystals/precipitates in the eye ([4]; intravitreal 1 μg/eye, day 8) | changes in retinal vasculature, retinal pigment epithelium, choroid, sclera ([4]; intravitreal 1 μg/eye, day 8, angiography and OCT) | vascular leakage (area of fluorescein leakage) [5] | endothelial cell death or cell cycle arrest (endothelial cell) | effect of post-treatment versus treatment on vessel ingrowth ([2]; treatment started 36 hrs after matrigel versus at the time of matrigel injection) | tube formation (tubulogenesis) [6]
1 | CC(=O)O[C@H]1C(=O)[C@@]2(C)[C@H]([C@H](OC(=O)c3ccccc3)[C@]3(O)C[C@H](OC(=O)[C@H](O)[C@@H](NC(=O)c4ccccc4)c4ccccc4)C(C)=C1C3(C)C)[C@]1(OC(C)=O)CO[C@@H]1C[C@@H]2O [taxol, reference compound] | significantly reduced | significant delay in the tumor growth | inhibits release of Ca^2+ from ER to the same extent as IP3R3 peptide |  |  |  |  |  |  |  |  |  |  |  | 
2 | FAEIPTI [reference compound] |  |  |  | newly formed blood vessels grew into the matrigel |  |  |  |  |  |  |  |  |  |  | 
3 | FTEIPTI [EBIN] |  |  |  | markedly reduced | significantly inhibited subcutaneous vascular leak | significantly reduced; also recorded: superior effect as compared to taxol | developed the tumor at the same rate as untreated mice | reduction in the tumor size; also recorded: significantly smaller as compared to control untreated group | No toxicity was observed | forms small crystals/precipitates inside of various humor | no visible changes | significantly reduced | did not induce endothelial cell death or cell cycle arrest | post-treatment was as effective as a treatment | significantly abolished formation of tubes; also recorded: inhibited tubulogenesis
